Assay results taken from patent publication US7247634B2, “Rifamycin derivatives effective against drug-resistant microbes” (Cumbre Pharmaceuticals Inc., priority 2004, dated 2007).
Converted amounts (≈) assume the structure as drawn. Where two headings read alike, the source gives them in different places.

Tests used:
Assay type in all cases: cell-based
[1] = system: Streptococcus pneumoniae ATCC6303; assay: MIC, microbroth dilution (NCCLS); conditions: rifS strain, THY Broth with 1 mg/mL catalase, 5% CO2, 37° C., read-out: Antimicrobial activity (MIC)
[2] = system: Staphylococcus epidermidis ATCC12228; assay: MIC, microbroth dilution (NCCLS); conditions: rifS strain, Cation-Adjusted Mueller-Hinton Broth, 37° C., read-out: Antimicrobial activity (MIC)
[3] = system: Staphylococcus aureus EN1252a gyrA^S84L grlA^S80F; assay: microbe, parasite or virus in culture; conditions: read-out: Antimicrobial activity (MIC)
How it was run: (§1)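 MICs by NCCLS broth microdilution, incubation at 37 °C, in cation-adjusted Mueller-Hinton broth. Strains: rifampin-resistant S. aureus ATCC 29213 with rpoB D417Y or H418Y, and quinolone-resistant EN1252a carrying gyrA S84L plus grlA S80F.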

[4] = system: Staphylococcus aureus ATCC29213 rpoB^H418Y; assay: microbe, parasite or virus in culture
How it was run: as §1

[5] = system: Staphylococcus aureus ATCC29213 rpoB^D417Y; assay: microbe, parasite or virus in culture
How it was run: as §1

[6] = system: Staphylococcus aureus ATCC29213; assay: MIC, microbroth dilution (NCCLS); conditions: rifS strain, Cation-Adjusted Mueller-Hinton Broth, 37° C., read-out: Antimicrobial activity (MIC)
[7] = system: Escherichia coli ATCC25922; assay: MIC, microbroth dilution (NCCLS); conditions: rifS strain, Cation-Adjusted Mueller-Hinton Broth, 37° C., read-out: Antimicrobial activity (MIC)
[8] = system: Enterococcus faecalis ATCC29212; assay: MIC, microbroth dilution (NCCLS); conditions: rifS strain, BHI Broth, 37° C., read-out: Antimicrobial activity (MIC)
[9] = system: Streptococcus pyogenes ATCC19615; assay: MIC, microbroth dilution (NCCLS); conditions: rifS strain, THY Broth, 37° C., read-out: Antimicrobial activity (MIC)
[10] = system: Haemophilus influenzae ATCC10211; assay: MIC, microbroth dilution (NCCLS); conditions: rifS strain, BHI Broth with NAD and hematin, 37° C., read-out: Antimicrobial activity (MIC)
[11] = system: Mycobacterium smegmatis ATCC700084; assay: MIC, microbroth dilution (NCCLS); conditions: Mycolicibacterium smegmatis, rifS strain, Middlebrook Broth plus ADC Enrichment, 37° C., read-out: Antimicrobial activity (MIC)
[12] = system: H. influenzae ATCC 10211 and E. coli ATCC 25922; assay: MIC, Gram-negative bacteria (panel); conditions: across two Gram-negative strains
Experimental: (§2) Representative compounds were assayed for antimicrobial activity as follows: Minimum Inhibitory Concentrations (“MICs”) were determined by the microbroth dilution method as per NCCLS guidelines (National Committee for Clinical Laboratory Standards. 2000. Methods for dilution antimicrobial susceptibility tests for bacteria that grow aerobically, 5th ed. M7-A5. National Committee for Clinical Laboratory Standards, Wayne, Pa.), except that all growth incubations were conducted at 37° C. Bacterial cultures were tested in the following bacteriological media: S. aureus, S. epidermidis, and E. coli in Cation-Adjusted Mueller-Hinton Broth, S. pneumoniae in THY Broth supplemented with 1 mg/mL catalase under 5% CO2 atmosphere, S. pyogenes in THY Broth, E. faecalis in BHI Broth, H. influenzae in BHI Broth supplemented with 0.75 μL of 1 mg/mL NAD and 150 μL of 1 mg/ml hematin per 5 mL, and M. smegmatis in Middlebrook Broth plus ADC Enrichment.
(§3) S. aureus ATCC […], S. epidermidis ATCC 12228, S. pneumoniae ATCC6303, S. pyogenes ATCC 19615 and E. faecalis ATCC 29212 are rifampin-susceptible Gram-positive strains. […] H. influenzae ATCC 10211 and E. coli ATCC 25922 are Gram-negative bacteria.

[13] = MIC, rifampin-susceptible Gram-positive strains (panel); conditions: across five rifampin-susceptible Gram-positive strains
Experimental: as §2, §3

[14] = ATCC29213, read-out: Antimicrobial activity (MIC)

| Compound | MIC [1] | MIC [2] | MIC [3] | MIC [4, 14] | MIC [5, 14] | MIC [6] | MIC [7] | MIC [8] | MIC [9] | MIC [10] | MIC [11] | MIC ([4]; ATCC29213) | MIC ([5]; ATCC29213) | MIC [12] | MIC [13] |
| --- | --- | --- | --- | --- | --- | --- | --- | --- | --- | --- | --- | --- | --- | --- | --- |
| COc1c(N2CC(NC(=O)C3CN(C4=C5NC(=O)/C(C)=C\C=C\[C@H](C)[C@H](O)[C@@H](C)[C@@H](O)[C@@H](C)[C@H](OC(C)=O)[C@H](C)[C@@H](OC)/C=C/O[C@@]6(C)Oc7c(C)c(O)c(c(c7C6=O)C4=O)C5=O)C3)C2)c(F)cc2c(=O)c(C(=O)O)cn(C3CC3)c12 [Example 47, 3-{3-[1-(3-Carboxy-1-cyclopropyl-6-fluoro-8-methoxy-4-oxo-1,4-dihydroquinolin-7-yl)-azetidin-3-ylcarbamoyl]-azetidin-1-yl}rifamycin S] | 0.008 to 0.125 µg/mL (≈ 0.00712 to 0.111 µM) | 0.008 to 0.063 µg/mL (≈ 0.00712 to 0.056 µM) | 0.004 to 0.5 µg/mL (≈ 0.00356 to 0.445 µM) | 0.06 to 16 µg/mL (≈ 0.0534 to 14.2 µM) | 0.06 to 32 µg/mL (≈ 0.0534 to 28.5 µM) | 0.004 to 0.5 µg/mL (≈ 0.00356 to 0.445 µM) | 0.125 to 8 µg/mL (≈ 0.111 to 7.12 µM) | 2 to 32 µg/mL (≈ 1.78 to 28.5 µM) | 0.008 to 0.063 µg/mL (≈ 0.00712 to 0.056 µM) | 0.125 to 2 µg/mL (≈ 0.111 to 1.78 µM) | 0.5 to 64 µg/mL |  |  |  |  |
| CO[C@H]1/C=C/O[C@@]2(C)Oc3c(C)c(O)c4c(c3C2=O)C(=O)C(N2CC(C(=O)N3CCN(c5ccc(N6C[C@H](CNC(C)=O)OC6=O)cc5F)CC3)C2)=C(NC(=O)/C(C)=C\C=C\[C@H](C)[C@H](O)[C@@H](C)[C@@H](O)[C@@H](C)[C@H](OC(C)=O)[C@@H]1C)C4=O [Example 48, 3-{3-(4-[1-(5-methyl-acetamidyl-2-oxo-oxazolidin-3-yl)-5-fluoro-phen-4-yl]-piperazin-1-ylcarbonyl)-azetidin-1-yl}-rifamycin S] | 0.008 to 0.125 µg/mL (≈ 0.00719 to 0.112 µM) | 0.008 to 0.063 µg/mL (≈ 0.00719 to 0.0566 µM) | 0.004 to 0.5 µg/mL (≈ 0.00359 to 0.449 µM) | 0.06 to 16 µg/mL (≈ 0.0539 to 14.4 µM) | 0.06 to 32 µg/mL (≈ 0.0539 to 28.7 µM) | 0.004 to 0.5 µg/mL (≈ 0.00359 to 0.449 µM) | 0.125 to 8 µg/mL (≈ 0.112 to 7.19 µM) | 2 to 32 µg/mL (≈ 1.8 to 28.7 µM) | 0.008 to 0.063 µg/mL (≈ 0.00719 to 0.0566 µM) | 0.125 to 2 µg/mL (≈ 0.112 to 1.8 µM) | 0.5 to 64 µg/mL |  |  |  |  |
| COc1c(N2CCN(C(=O)C3CCN(C4=C5NC(=O)/C(C)=C\C=C\[C@H](C)[C@H](O)[C@@H](C)[C@@H](O)[C@@H](C)[C@H](OC(C)=O)[C@H](C)[C@@H](OC)/C=C/O[C@@]6(C)Oc7c(C)c(O)c(c(c7C6=O)C4=O)C5=O)CC3)CC2)c(F)cc2c(=O)c(C(=O)O)cn(C3CC3)c12 [Example 51, 3-{4-[4-(3-Carboxy-1-cyclopropyl-6-fluoro-8-methoxy-4-oxo-1,4-dihydroquinolin-7-yl)-piperazin-1-ylcarbonyl]-piperidin-1-yl}rifamycin S] | 0.008 to 0.125 µg/mL (≈ 0.00686 to 0.107 µM) | 0.008 to 0.063 µg/mL (≈ 0.00686 to 0.054 µM) | 0.004 to 0.5 µg/mL (≈ 0.00343 to 0.429 µM) | 0.06 to 16 µg/mL (≈ 0.0514 to 13.7 µM) | 0.06 to 32 µg/mL (≈ 0.0514 to 27.4 µM) | 0.004 to 0.5 µg/mL (≈ 0.00343 to 0.429 µM) | 0.125 to 8 µg/mL (≈ 0.107 to 6.86 µM) | 2 to 32 µg/mL (≈ 1.71 to 27.4 µM) | 0.008 to 0.063 µg/mL (≈ 0.00686 to 0.054 µM) | 0.125 to 2 µg/mL (≈ 0.107 to 1.71 µM) | 0.5 to 64 µg/mL |  |  |  |  |
| COc1c(N2CC(NC(=O)C3CCN(C4=C5NC(=O)/C(C)=C\C=C\[C@H](C)[C@H](O)[C@@H](C)[C@@H](O)[C@@H](C)[C@H](OC(C)=O)[C@H](C)[C@@H](OC)/C=C/O[C@@]6(C)Oc7c(C)c(O)c(c(c7C6=O)C4=O)C5=O)CC3)C2)c(F)cc2c(=O)c(C(=O)O)cn(C3CC3)c12 [Example 53, 3-{4-[1-(3-Carboxy-1-cyclopropyl-6-fluoro-8-methoxy-4-oxo-1,4-dihydroquinolin-7-yl)-azetidin-3-ylcarbamoyl]-piperidin-1-yl}rifamycin S] | 0.008 to 0.125 µg/mL (≈ 0.00694 to 0.108 µM) | 0.008 to 0.063 µg/mL (≈ 0.00694 to 0.0547 µM) | 0.004 to 0.5 µg/mL (≈ 0.00347 to 0.434 µM) | 0.06 to 16 µg/mL (≈ 0.0521 to 13.9 µM) | 0.06 to 32 µg/mL (≈ 0.0521 to 27.8 µM) | 0.004 to 0.5 µg/mL (≈ 0.00347 to 0.434 µM) | 0.125 to 8 µg/mL (≈ 0.108 to 6.94 µM) | 2 to 32 µg/mL (≈ 1.74 to 27.8 µM) | 0.008 to 0.063 µg/mL (≈ 0.00694 to 0.0547 µM) | 0.125 to 2 µg/mL (≈ 0.108 to 1.74 µM) | 0.5 to 64 µg/mL |  |  |  |  |
| CO[C@H]1/C=C/O[C@@]2(C)Oc3c(C)c(O)c4c(c3C2=O)C(=O)C(N2CCN(c3nc5c(cc3F)c(=O)c(C(=O)O)cn5C3CC3)CC2)=C(NC(=O)/C(C)=C\C=C\[C@H](C)[C@H](O)[C@@H](C)[C@@H](O)[C@@H](C)[C@H](OC(C)=O)[C@@H]1C)C4=O [Example 55, 3-[1-(3-Carboxy-1-cyclopropyl-6-fluoro-4-oxo-1,4-dihydro-[1,8]naphthyridine-7-yl)-piperazin-4-yl]-rifamycin S] | 0.008 to 0.125 µg/mL (≈ 0.0078 to 0.122 µM) | 0.008 to 0.063 µg/mL (≈ 0.0078 to 0.0614 µM) | 0.004 to 0.5 µg/mL (≈ 0.0039 to 0.487 µM) | 0.06 to 16 µg/mL (≈ 0.0585 to 15.6 µM) | 0.06 to 32 µg/mL (≈ 0.0585 to 31.2 µM) | 0.004 to 0.5 µg/mL (≈ 0.0039 to 0.487 µM) | 0.125 to 8 µg/mL (≈ 0.122 to 7.8 µM) | 2 to 32 µg/mL (≈ 1.95 to 31.2 µM) | 0.008 to 0.063 µg/mL (≈ 0.0078 to 0.0614 µM) | 0.125 to 2 µg/mL (≈ 0.122 to 1.95 µM) | 0.5 to 64 µg/mL |  |  |  |  |
| CO[C@H]1/C=C/O[C@@]2(C)Oc3c(C)c(O)c4c(c3C2=O)C(=O)C(N2CCCC3(CCN(c5nc6c(cc5F)c(=O)c(C(=O)O)cn6-c5ccc(F)cc5F)C3)C2)=C(NC(=O)/C(C)=C\C=C\[C@H](C)[C@H](O)[C@@H](C)[C@@H](O)[C@@H](C)[C@H](OC(C)=O)[C@@H]1C)C4=O (stereo partly drawn) [Example 60] | 0.008 to 0.125 µg/mL (≈ 0.00694 to 0.108 µM) | 0.008 to 0.063 µg/mL (≈ 0.00694 to 0.0547 µM) | 0.004 to 0.5 µg/mL (≈ 0.00347 to 0.434 µM) | 0.06 to 16 µg/mL (≈ 0.0521 to 13.9 µM) | 0.06 to 32 µg/mL (≈ 0.0521 to 27.8 µM) | 0.004 to 0.5 µg/mL (≈ 0.00347 to 0.434 µM) | 0.125 to 8 µg/mL (≈ 0.108 to 6.94 µM) | 2 to 32 µg/mL (≈ 1.74 to 27.8 µM) | 0.008 to 0.063 µg/mL (≈ 0.00694 to 0.0547 µM) | 0.125 to 2 µg/mL (≈ 0.108 to 1.74 µM) | 0.5 to 64 µg/mL |  |  |  |  |
| CO[C@H]1/C=C/O[C@@]2(C)Oc3c(C)c(O)c4c(O)c(c(/C=N/N5CCN(C)CC5)c(O)c4c3C2=O)NC(=O)/C(C)=C\C=C\[C@H](C)[C@H](O)[C@@H](C)[C@@H](O)[C@@H](C)[C@H](OC(C)=O)[C@@H]1C [rifampin, reference compound] | 0.061 µg/mL (≈ 0.0741 µM) | 0.03 µg/mL (≈ 0.0365 µM) | 0.004 µg/mL (≈ 0.00486 µM) | 8 µg/mL (≈ 9.72 µM) | > 64 µg/mL | 0.008 µg/mL (≈ 0.00972 µM) | 16 µg/mL (≈ 19.4 µM) | 1 µg/mL (≈ 1.22 µM) | 0.013 µg/mL (≈ 0.0158 µM) | 0.24 µg/mL (≈ 0.292 µM) | 64 µg/mL | 8 µg/mL (≈ 9.72 µM) | > 64 µg/mL | 0.24 to 16 µg/mL (≈ 0.292 to 19.4 µM) | 0.008 to 1 µg/mL (≈ 0.00972 to 1.22 µM) |
